# Measured values published in US11458138B2 (Novartis AG, priority 2017, dated 2022).
# “Also recorded” adds a separate entry of the source.
# How the values were obtained:
# [1] = system: corneal endothelial cell population; assay: Immunohistochemical analysis of expanded corneal endothelial cell population; assay type: cell-based, human
# From the text: (1) The cells express Na/K ATPase. The expression of Na/K ATPase may be estimated by standard techniques known in the art, such as for example immunohistochemistry, quantitative RT-PCR or by FACS analysis.
# [2] = system: Corneal Endothelial Cells (CECs); assay: ZO-1 immunolabelling of expanded CECs; assay type: cell-based, human; settings: vs vehicle DMSO
# From the text: CECs proliferated in the presence of the vehicle alone (DMSO) show signs of polymegatism characteristic of dysfunctional CECs (FIG. 18a).
# (2) The cells are able to form tight junctions. This may be checked by a standard technique known in the art, immunofluorescence staining of tight-junction marker Zonula Occludens-1 (ZO-1).
# (3) The cells are able to be regularly arranged in the cell layer. This may be checked by a standard technique known in the art, immunofluorescence staining of tight-junction marker Zonula Occludens-1 (ZO-1).
# [3] = system: human corneal endothelial cells (CECs); assay: CEC population expansion, immunohistochemical observation of cellular morphology (ZO-1); assay type: cell-based; settings: 10 micromolar, 10 days
# Description: Cells were cultured at 37° C. in 5% CO2 for 10 days.
# In order to observe that the expanded cell population has the required cellular morphology for use in vivo, the ability of the cells to form tight junctions was measured by immunohistochemistry as follows. Cell cultures were fixed with 4% PFA for 20 minutes, permeabilized and blocked in a blocking solution of 0.3% Triton X-100 (Sigma-Aldrich) and 3% donkey serum in PBS for 30 minutes. Cells were then labeled with primary antibody in the blocking solution for 12 hours at 4° C. Primary antibody used was ZO-1 from Invitrogen. Samples were washed in PBS three times and donkey-raised secondary antibody Alexa Fluor 488 (Molecular Probes) at 1:500 dilution were applied for 30 minutes at room temperature. Cells were washed three times in PBS and nuclei (DNA) were stained with Sytox Orange (567 nm, Life Technologies). […] Fluorescence was observed using a Zeiss LSM 880 confocal microscope.
# [4] = system: human keratinocytes (HaCaT); assay: In vitro YAP pathway activation and cell proliferation in human keratinocytes (HaCaT); assay type: cell-based
# From the text: Accordingly, Example 133 is useful in promoting skin regeneration.
# YAP target gene Cyr61 = assay: In Vivo PD Assay: YAP target gene expression in mouse excisional wounds; settings: mouse full-thickness excisional wounds, topical 0.2 and 2 mg/mL, two daily doses, vs vehicle, dose-dependent
# Description: The compounds of the invention also activate the YAP pathway in vivo. A study of YAP pathway target gene expression was conducted in an in vivo mouse model as described in the In Vivo PD Assay in the Examples Section A. Two full-thickness excisional wounds on the dorsum of an anesthetized mouse were treated topically with vehicle, or 0.2 and 2 mg/mL of Example 133. After two daily doses, the skin samples around the wound edge were collected and Taqman analyses were performed using Cyr61 and Gapdh probes. mRNA expression levels for the target genes were normalized to Gapdh mRNA levels and plotted against the concentration of Example 133 in FIG. 34. […] The result is consistent with known LATS biology for activation of the YAP pathway.
# [5] = system: Ki67-positive hepatocytes; assay: In vivo treatment of mice: immunohistochemistry (IHC) for Ki67 in liver; settings: mouse liver, single oral dose 10 mg/kg, 24 h post-dose, relative to vehicle, mean+/-SEM
# Description: (§1) All animal studies were carried out in accordance with federal, state, local and institutional guidelines governing the use of laboratory animals in research. Male C57BL/6J mice (age 8-10 weeks) were purchased from Jackson Labs (Bar Harbor, Me.). Example 46 was formulated for oral dosing at 3 mg/ml, and Example 261 at 1 mg/ml, in a suspension of methylcellulose:Tween80:Water (0.5:0.5:99). Single oral dose of either compound was at 10 mL/kg body weight. Blood and liver tissue were collected under deep anesthesia (isoflurane) at either 2 h post-dose (for mRNA analysis) or 24 h post-dose (for immunohistochemistry).
# Liver tissue was fixed in 10% neutral buffered formalin for 24-48 h. Processing and embedding in paraffin was by standard procedures. Sections were cut at 5 microns thickness and stained using a Ventana automated system. Primary antibody for mouse Ki67 was a rabbit IgG (Bethyl Labs). Ki67-positive hepatocytes were quantified by image analysis using the HALO platform. At least 3 sections per animal were analyzed, from the middle of the medial lobe.
# [6] = system: Phospho-YAP (SER127) in liver tissue; assay: In vivo treatment of mice: Phospho-YAP (pYAP) HTRF in liver tissue; settings: mouse liver, single oral dose 10 mg/kg
# Description: as §1
# Frozen liver tissue was transferred into a Lysing Matrix tube (MP, cat #6913-500) with a 1:50 solution of Protease inhibitor (Sigma-Aldrich, cat #P8340) in Phosphosafe extraction buffer (Novagen, cat #71296-3) and homogenized using the FastPrep-24 (MP biomedicals). […] The protein concentration was measured using the BCA Protein Assay Kit (Pierce cat. 23227) following the manufacturer's protocol. […] The same input quantity was used for each sample, based on total protein content (30-60 ug per sample per well). […] Plates were read on an EnVision (PerkinElmer) with emission wavelengths of 665 nm & 620 nm. The HTRF signal ratio was calculated as Signal(665 nm)/Signal(620 nm))×10000 as specified in the manufacturer's protocol. […]
# Cyr61 mRNA in liver = assay: In vivo treatment of mice: quantitative RT-PCR, Cyr61; settings: mouse liver, single oral dose 10 mg/kg, 2 h post-dose, relative to vehicle, mean+/-SEM
# Description: as §1
# Total liver RNA was isolated from tissue after storage in RNAlater reagent (Qiagen), using a TRIzol method according to the manufacturer's instructions (Life Technologies). Relative mRNA abundance was measured by quantitative RT-PCR using TaqMan gene expression assays and reagents according to standard protocols (Applied Biosystems). Mouse probes for YAP target genes were CTGF (Mm01192933_g1) and Cyr61 (Mm00487498_m1). […] Relative changes in mRNA were calculated by the ΔΔCt method. Changes in gene expression with compound treatment are expressed as fold-change relative to the vehicle group.
smiles,measurement,setting,value
"CC(C)(O)CC(C)(C)Nc1nc(-c2ccncc2)nc2cnccc12 [Example 49, 2,4-dimethyl-4-{[2-(pyridin-4-yl)pyrido[3,4-d]pyrimidin-4-yl]amino}pentan-2-ol]",expression of Na/K ATPase and Collagen 8a2 by immunohistochemistry,[1],express genes normally expressed by corneal endothelial cells in vivo
same,"tight junctions, cell size and morphology of CECs (ZO-1)",[2],"form tight junctions, an endothelial structure and retain a normal cell size and morphology"
same,CEC morphology and tight junctions (ZO-1),[3],retained a normal corneal endothelial cell morphology and the ability to form tight junctions
"Cc1n[nH]cc1-c1nc(NC2(C)CC2)c2ccncc2n1 [Example 133, 2-(3-methyl-1H-pyrazol-4-yl)-N-(1-methylcyclopropyl)pyrido[3,4-d]pyrimidin-4-amine]",YAP pathway activation in vitro,[4],activated the YAP pathway
same,cell proliferation in human keratinocytes (HaCaT),[4],promoted cell proliferation
same,YAP target gene Cyr61 mRNA normalized to Gapdh,YAP target gene Cyr61,significantly up-regulated; also recorded: induced YAP target gene expression
"CC(C)(C)Nc1cc(-c2ccncc2)nc2cnccc12 [Example 261, N-(tert-butyl)-2-(pyridin-4-yl)-1,7-naphthyridin-4-amine]",Ki67 IHC (fold-change),[5],3.1 (+/−0.5) fold-change
same,pYAP (% of control),[6],60 % of control
same,Cyr61 mRNA (fold-change),Cyr61 mRNA in liver,3.9 (+/−0.6) fold-change
